According to patent US9974727B2, “Hair growth and hair restoration material” (INSTITUTE OF RHEOLOGICAL FUNCTION OF FOOD CO., LTD., priority 2011, dated 2018):

Columns and labels:
Type in all cases: in vivo
C3H male mice = test: Hair growth test on shaved backs of mice; conditions: for Hair growth state 2 weeks after application: 20 μL on shaved back, mice with hair growth / mice
Method: The FCG obtained in Production Example 1, the SCG obtained in Production Example 2, the CSG obtained in Production Example 3, and the RSG obtained in Production Example 4 were each dissolved, in 70% by mass ethanol water, and the following solutions were prepared:
Furthermore, commercially available cholesterol (hereinafter, abbreviated as “Cho”) was dissolved in 70% by mass ethanol water to prepare a Cho 10 pg/mL solution.
The body hair on the back of 8 to 9-week-old C3H male mice was shaved using an electric clippers for animal use (“Thrive clipper, Model 600AD” manufactured by Daito Electric Company) together with a rotary shaver (National ES611).
Each of the sample solutions (20 μL) was applied in four portions to the skin in central parts of the shaved backs of mice while repeating air drying. The application was conducted 24 hours after shaving.
The hair growth effect was evaluated 2 weeks after the application of the sample solution on the basis of observation with the naked eye and photographs taken by a digital camera. Furthermore, as controls, mice applied with 70% by mass ethanol water and mice not applied with a sample solution were used.

[1] = tested on: Hsp70 (heat shock protein 70); test: Preliminary test for hair growth using mice, Hsp70 immunostaining of skin; conditions: 10 pg/mL, 3 hours after application; hair papilla cells of hair root in telogen
Method: (§1) A 70% by mass aqueous ethanol solution containing FCG obtained in Production Example 1 at a concentration of 10 pg/mL (sample solution) was prepared.
(§2) The sample solution (20 μL) was applied onto the shaved back skin of four 9-week-old ICR male mice, and skin was collected after 3 hours and after 6 hours.
(§3) The skin was subjected to immunostaining for bFGF (basic fibroblast growth factor), Hsp70 (heat shock protein 70), and VEGF (vascular endothelial cell growth factor) by the fluorescent antibody technique and HE staining (hematoxylin-eosin staining), and samples of 14 μm-thick cryostat sections were prepared.

head hair = test: Hair growth effect on human head hair; conditions: person
Method: (§4) The hair growth effect of FCG on head hair of a person was examined.
After hair was thoroughly washed and dried completely with a dryer, about 3.5 mL of a 70% by mass aqueous ethanol solution (sample solution) containing FCG at a concentration of 10 pg/mL was evenly applied, to the scalp once a day.
Before use of the sample solution and 4 months after start of use, photographs were taken by a digital camera from the forehead and the top of head.
as §4
After hair was thoroughly washed and naturally dried completely, about 3.5 mL of a 70% by mass aqueous ethanol solution (sample solution) containing FCG at a concentration of 10 pg/mL was evenly applied to the scalp once a day.
On the date of start of use of the sample solution and 5 months after start of use, photographs of the forehead and the top of head were taken by a digital camera.

[2] = tested on: bFGF (basic fibroblast growth factor); test: Preliminary test for hair growth using mice, bFGF immunostaining of skin
Method: as §1, §2, §3

[3] = tested on: shaved back skin of ICR male mice; test: Preliminary test for hair growth using mice, HE staining of skin; conditions: 10 pg/mL, 20 μL
Method: as §1, §2, §3

[4] = tested on: VEGF (vascular endothelial cell growth factor); test: Preliminary test for hair growth using mice, VEGF immunostaining of skin; conditions: 10 pg/mL, 3 hours after application
Method: as §1, §2, §3

[5] = C3H mice, 2 weeks after application
[6] = 10 pg/mL, about 3.5 mL once a day, 5 months after start of use
[7] = 10 pg/mL, 6 hours after application

Row | SMILES | Hair growth state 2 weeks after application (C3H male mice; 1 pg/mL in 70% ethanol water) | Hair growth state 2 weeks after application (C3H male mice; 10 pg/mL in 70% ethanol water) | Hair growth state 2 weeks after application (C3H male mice; 100 pg/mL in 70% ethanol water) | Hair growth action (summary of Table 1) (C3H male mice; [5]) | Hsp70 expression (immunostaining) [1] | Hair growth on forehead and top of head (head hair; 10 pg/mL, about 3.5 mL once a day, 4 months after start of use) | Hair growth on forehead (head hair; [6]) | Hair growth on top of head (head hair; [6]) | Side effects (head hair; one year after start of use) | bFGF expression (immunostaining) ([2]; 10 pg/mL, 3 hours after application, hair follicle, epidermis, bulge region, external root sheath, erector pili muscles) | bFGF expression in erector pili muscles (immunostaining) [2, 7] | bFGF expression in hair papilla cells (immunostaining) [2, 7] | bFGF expression, conclusion ([2]; epidermis, external root sheath, bulge region, hair matrix) | HE staining, hair root and hair bulb ([3]; 3 hours after application, one of two mice) | HE staining, hair root ([3]; 6 hours after application) | Death of mice during hair growth test (C3H male mice; 100 pg/mL, 2 weeks after application) | Hair growth action at 1 pg/mL compared with 10 pg/mL (C3H male mice; [5]) | VEGF expression (immunostaining) [4]
1 | CC(C)CCC[C@@H](C)[C@H]1CC[C@H]2[C@@H]3CC=C4C[C@@H](O[C@@H]5O[C@H](CO)[C@@H](O)[C@H](O)[C@H]5O)CC[C@]4(C)[C@H]3CC[C@]12C [SCG, cholesteryl-β-D-glucopyranoside] | 6/8 | ⅝ | ⅜ | same hair growth action as that of the cholesteryl glucopyranoside derived from feathers (FCG) | – | – | – | – | – | – | – | – | – | – | – | – | – | –
2 | CC(C)CCC[C@@H](C)[C@H]1CC[C@H]2[C@@H]3CC=C4C[C@@H](O[C@@H]5O[C@H](CO)[C@@H](O)[C@H](O)[C@H]5O)CC[C@]4(C)[C@H]3CC[C@]12C [FCG, cholesteryl glucopyranoside] | 6/8 | 4/8 | 5/7 | – | Weak to moderate expression of Hsp70 was detected | a large amount of hair growth was observed | hair growth was observed | a good amount of hair growth was observed | side effects are not recognized | Strong expression of bFGF was detected | reduced to moderate | became weak | expression of bFGF is induced | local extension of the hair root and enlargement of the hair bulb were observed | Most of the hair roots extended to the subcutaneous tissue | one mouse died | higher | VEGF positive reaction was found in hair papilla cells in the hair matrix
3 | CC(C)CCC[C@@H](C)[C@H]1CC[C@H]2[C@@H]3CC=C4C[C@@H](O)CC[C@]4(C)[C@H]3CC[C@]12C [Cho, cholesterol, reference compound] | – | 4/8 | – | weak | – | – | – | – | – | – | – | – | – | – | – | – | – | –
